The target in assay [1] is G protein-coupled receptor kinase 4 (Homo sapiens) (UniProt P32298). Briefly: Residual activity of GRK4 at 0.1 uM by microplate scintillation counting.
For assay [2], the target named is T1, cAMP-dependent protein kinase catalytic subunit PRKX (Homo sapiens) (UniProt P51817).
T1 sequence (whole entry): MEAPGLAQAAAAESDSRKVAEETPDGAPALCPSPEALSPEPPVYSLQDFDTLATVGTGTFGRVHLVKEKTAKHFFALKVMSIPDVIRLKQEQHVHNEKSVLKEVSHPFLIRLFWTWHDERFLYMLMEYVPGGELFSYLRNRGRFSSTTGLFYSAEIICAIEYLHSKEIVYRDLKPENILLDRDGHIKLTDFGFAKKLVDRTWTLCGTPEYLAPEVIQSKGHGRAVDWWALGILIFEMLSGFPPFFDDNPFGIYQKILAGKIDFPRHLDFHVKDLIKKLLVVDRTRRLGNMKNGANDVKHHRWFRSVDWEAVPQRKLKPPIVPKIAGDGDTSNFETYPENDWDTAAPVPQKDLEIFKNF
Briefly: Residual activity of PRKX at 0.1 uM by microplate scintillation counting.

In assay [3] the target is Tyrosine-protein kinase Lck (Homo sapiens) (UniProt P06239). The assay is described as follows: Residual activity of LCK at 1 uM by microplate scintillation counting.
Chain of Tyrosine-protein kinase Lck (Homo sapiens) (P06239 2-509 limits assumed): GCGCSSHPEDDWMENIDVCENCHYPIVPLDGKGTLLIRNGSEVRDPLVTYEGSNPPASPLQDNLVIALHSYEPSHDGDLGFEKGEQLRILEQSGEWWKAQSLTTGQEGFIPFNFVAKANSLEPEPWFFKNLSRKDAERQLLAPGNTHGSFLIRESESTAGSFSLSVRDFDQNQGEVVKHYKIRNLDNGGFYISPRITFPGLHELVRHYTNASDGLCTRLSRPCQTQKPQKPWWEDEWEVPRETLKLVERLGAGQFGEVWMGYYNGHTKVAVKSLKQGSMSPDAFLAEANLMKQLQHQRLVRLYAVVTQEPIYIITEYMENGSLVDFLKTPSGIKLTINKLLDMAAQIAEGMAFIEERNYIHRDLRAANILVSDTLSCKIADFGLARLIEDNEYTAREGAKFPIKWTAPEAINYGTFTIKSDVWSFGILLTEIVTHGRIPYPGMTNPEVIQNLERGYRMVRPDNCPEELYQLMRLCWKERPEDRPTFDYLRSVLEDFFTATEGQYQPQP
The target of assay [4] is Death-associated protein kinase 2 (Homo sapiens) (UniProt Q9UIK4). The assay is described as follows: Residual activity of DAPK2 at 1 uM by microplate scintillation counting.
The target in assay [5] is Macrophage-stimulating protein receptor (Homo sapiens) (UniProt Q04912). The assay is described as follows: Residual activity of RON at 1 uM by microplate scintillation counting.
Assay [6] deals with Insulin receptor (Homo sapiens) (UniProt P06213). The assay is described as follows: Residual activity of INSR at 10 uM by microplate scintillation counting.
Chain of Insulin receptor (Homo sapiens) (P06213 28-758 limits assumed): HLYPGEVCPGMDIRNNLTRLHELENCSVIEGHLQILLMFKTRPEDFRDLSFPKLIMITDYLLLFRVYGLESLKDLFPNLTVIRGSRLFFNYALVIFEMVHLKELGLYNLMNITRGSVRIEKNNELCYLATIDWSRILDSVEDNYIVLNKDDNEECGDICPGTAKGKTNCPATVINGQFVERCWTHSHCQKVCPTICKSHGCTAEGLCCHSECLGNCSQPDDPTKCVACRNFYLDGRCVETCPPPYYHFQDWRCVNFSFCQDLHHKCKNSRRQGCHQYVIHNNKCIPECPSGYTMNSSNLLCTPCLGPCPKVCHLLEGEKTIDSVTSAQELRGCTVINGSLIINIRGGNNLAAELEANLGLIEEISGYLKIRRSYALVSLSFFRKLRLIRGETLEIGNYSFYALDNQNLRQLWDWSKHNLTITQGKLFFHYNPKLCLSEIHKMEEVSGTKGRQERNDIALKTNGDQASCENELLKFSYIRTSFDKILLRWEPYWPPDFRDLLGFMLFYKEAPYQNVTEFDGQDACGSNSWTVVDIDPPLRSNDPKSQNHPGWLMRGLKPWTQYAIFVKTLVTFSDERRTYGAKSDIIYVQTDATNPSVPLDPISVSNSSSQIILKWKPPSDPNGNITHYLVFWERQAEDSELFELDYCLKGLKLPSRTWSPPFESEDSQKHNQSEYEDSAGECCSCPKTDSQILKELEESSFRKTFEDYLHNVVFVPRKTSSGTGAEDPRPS
Chain of Insulin receptor (Homo sapiens) (P06213 763-1382 limits assumed): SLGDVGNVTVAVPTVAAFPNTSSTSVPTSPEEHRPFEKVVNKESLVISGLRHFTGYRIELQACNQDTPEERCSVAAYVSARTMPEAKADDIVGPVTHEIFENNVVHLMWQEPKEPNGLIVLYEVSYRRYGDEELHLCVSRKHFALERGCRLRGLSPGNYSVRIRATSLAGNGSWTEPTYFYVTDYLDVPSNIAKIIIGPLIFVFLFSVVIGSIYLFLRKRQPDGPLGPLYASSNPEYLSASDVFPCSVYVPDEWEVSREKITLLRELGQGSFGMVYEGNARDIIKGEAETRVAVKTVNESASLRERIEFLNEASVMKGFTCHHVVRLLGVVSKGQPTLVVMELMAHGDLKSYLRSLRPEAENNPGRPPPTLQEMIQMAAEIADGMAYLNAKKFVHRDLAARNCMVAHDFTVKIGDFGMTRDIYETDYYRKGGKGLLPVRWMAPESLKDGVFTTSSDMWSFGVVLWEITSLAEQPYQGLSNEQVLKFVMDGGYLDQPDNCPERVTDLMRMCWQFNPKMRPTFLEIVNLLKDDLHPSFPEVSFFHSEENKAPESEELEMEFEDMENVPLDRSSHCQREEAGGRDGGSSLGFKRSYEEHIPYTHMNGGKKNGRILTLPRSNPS
Assay [7] concerns the target Wee1-like protein kinase (Homo sapiens) (UniProt P30291). Briefly: Residual activity of WEE1 at 0.1 uM by microplate scintillation counting.
Assay [8] concerns the target Serine/threonine-protein kinase 24 (Homo sapiens) (UniProt Q9Y6E0). Briefly: Residual activity of MST3 at 0.1 uM by microplate scintillation counting.
For assay [9], the target named is Dual specificity mitogen-activated protein kinase kinase 1 (Homo sapiens) (UniProt Q02750). The assay is described as follows: Residual activity of wild type MEK1 at 0.1 uM by microplate scintillation counting.
Chain of Dual specificity mitogen-activated protein kinase kinase 1 (Homo sapiens) (Q02750 whole entry): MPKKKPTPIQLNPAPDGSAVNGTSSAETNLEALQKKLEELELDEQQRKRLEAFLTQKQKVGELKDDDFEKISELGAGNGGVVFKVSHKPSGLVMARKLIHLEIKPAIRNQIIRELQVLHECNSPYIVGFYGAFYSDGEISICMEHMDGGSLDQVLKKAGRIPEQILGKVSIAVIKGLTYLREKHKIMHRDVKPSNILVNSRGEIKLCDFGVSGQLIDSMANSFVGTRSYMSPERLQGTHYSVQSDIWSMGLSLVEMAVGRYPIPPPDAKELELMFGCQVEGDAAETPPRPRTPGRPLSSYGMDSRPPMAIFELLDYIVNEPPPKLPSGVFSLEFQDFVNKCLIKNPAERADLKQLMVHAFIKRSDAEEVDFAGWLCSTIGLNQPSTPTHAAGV
The target in assay [10] is T2, Tyrosine-protein kinase ZAP-70 (Homo sapiens) (UniProt P43403).
T2 sequence (whole entry): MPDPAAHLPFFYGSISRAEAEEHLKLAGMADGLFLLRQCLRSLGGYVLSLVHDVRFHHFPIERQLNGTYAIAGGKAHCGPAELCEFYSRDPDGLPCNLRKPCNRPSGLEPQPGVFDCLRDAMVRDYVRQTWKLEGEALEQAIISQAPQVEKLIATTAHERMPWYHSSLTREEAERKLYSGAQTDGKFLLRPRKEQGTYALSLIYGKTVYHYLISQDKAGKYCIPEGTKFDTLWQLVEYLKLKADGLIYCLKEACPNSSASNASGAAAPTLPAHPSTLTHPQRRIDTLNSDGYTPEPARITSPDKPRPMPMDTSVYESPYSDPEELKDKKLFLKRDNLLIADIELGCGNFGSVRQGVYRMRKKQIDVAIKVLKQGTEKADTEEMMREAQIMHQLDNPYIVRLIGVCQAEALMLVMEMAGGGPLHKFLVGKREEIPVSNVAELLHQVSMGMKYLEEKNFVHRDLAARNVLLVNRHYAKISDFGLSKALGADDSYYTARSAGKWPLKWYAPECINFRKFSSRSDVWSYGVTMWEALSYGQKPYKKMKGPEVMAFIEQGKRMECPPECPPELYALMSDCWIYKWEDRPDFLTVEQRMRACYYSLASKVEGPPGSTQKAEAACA
Briefly: Residual activity of ZAP70 at 1 uM by microplate scintillation counting.

Assay [11] has as its target T3, Lymphokine-activated killer T-cell-originated protein kinase (Homo sapiens) (UniProt Q96KB5).
T3 sequence (whole entry): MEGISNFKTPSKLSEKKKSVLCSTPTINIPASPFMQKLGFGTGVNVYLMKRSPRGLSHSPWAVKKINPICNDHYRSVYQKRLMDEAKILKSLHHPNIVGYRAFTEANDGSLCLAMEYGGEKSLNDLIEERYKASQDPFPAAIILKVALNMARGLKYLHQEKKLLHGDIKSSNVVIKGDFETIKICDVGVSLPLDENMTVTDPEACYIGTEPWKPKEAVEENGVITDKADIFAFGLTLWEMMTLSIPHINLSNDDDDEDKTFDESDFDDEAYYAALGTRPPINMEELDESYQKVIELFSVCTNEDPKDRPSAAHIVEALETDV
Briefly: Residual activity of PBK at 0.1 uM by microplate scintillation counting.

The target in assay [12] is T4, Ephrin type-B receptor 4 (Homo sapiens) (UniProt P54760).
T4 sequence (whole entry): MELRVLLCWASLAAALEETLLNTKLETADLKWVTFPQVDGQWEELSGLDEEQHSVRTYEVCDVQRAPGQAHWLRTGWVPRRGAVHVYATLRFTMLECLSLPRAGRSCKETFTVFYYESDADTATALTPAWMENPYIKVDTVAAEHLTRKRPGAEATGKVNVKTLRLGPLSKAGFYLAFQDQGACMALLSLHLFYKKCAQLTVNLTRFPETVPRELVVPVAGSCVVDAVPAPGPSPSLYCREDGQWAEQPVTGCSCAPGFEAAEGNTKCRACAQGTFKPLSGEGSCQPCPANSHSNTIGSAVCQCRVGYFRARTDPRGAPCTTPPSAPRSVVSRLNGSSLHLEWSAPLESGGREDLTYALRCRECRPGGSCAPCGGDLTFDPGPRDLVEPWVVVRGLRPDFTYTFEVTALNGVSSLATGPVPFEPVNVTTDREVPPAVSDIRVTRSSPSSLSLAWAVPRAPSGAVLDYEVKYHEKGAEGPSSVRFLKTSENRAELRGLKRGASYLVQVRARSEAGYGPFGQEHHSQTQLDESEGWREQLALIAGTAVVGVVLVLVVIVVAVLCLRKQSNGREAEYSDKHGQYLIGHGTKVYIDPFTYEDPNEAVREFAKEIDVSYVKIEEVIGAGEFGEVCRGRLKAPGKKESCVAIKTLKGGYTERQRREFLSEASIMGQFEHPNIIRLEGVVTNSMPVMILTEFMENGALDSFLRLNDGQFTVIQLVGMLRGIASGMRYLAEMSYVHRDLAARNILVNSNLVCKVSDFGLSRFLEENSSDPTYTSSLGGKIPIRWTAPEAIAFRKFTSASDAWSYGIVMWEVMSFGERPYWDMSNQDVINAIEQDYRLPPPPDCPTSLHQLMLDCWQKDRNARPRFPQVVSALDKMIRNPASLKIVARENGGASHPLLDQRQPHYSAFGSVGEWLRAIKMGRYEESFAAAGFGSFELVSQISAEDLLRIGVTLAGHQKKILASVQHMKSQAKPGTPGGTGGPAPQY
The assay is described as follows: Residual activity of EPHB4 at 0.1 uM by microplate scintillation counting.

Assay [13] concerns the target Platelet-derived growth factor receptor beta (Homo sapiens, UniProt P09619). The assay is described as follows: Residual activity of PDGFRbeta at 1 uM by microplate scintillation counting.

Chain of G protein-coupled receptor kinase 4 (Homo sapiens) (P32298 whole entry, looked up): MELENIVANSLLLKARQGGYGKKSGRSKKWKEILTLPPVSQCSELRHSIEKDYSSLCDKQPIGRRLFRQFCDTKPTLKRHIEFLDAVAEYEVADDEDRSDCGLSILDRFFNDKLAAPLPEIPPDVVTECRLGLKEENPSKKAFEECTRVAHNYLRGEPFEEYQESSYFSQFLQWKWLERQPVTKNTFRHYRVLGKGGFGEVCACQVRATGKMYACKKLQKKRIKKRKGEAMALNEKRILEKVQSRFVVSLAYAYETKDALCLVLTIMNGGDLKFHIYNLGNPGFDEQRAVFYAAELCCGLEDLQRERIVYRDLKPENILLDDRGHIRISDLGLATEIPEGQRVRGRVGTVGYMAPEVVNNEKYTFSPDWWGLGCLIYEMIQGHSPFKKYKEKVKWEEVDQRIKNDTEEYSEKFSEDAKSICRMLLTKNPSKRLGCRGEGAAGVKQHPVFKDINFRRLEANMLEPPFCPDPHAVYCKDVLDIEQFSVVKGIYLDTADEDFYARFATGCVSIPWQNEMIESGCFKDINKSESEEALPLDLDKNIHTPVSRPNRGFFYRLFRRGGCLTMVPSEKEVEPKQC
Chain of Wee1-like protein kinase (Homo sapiens) (P30291 whole entry, looked up): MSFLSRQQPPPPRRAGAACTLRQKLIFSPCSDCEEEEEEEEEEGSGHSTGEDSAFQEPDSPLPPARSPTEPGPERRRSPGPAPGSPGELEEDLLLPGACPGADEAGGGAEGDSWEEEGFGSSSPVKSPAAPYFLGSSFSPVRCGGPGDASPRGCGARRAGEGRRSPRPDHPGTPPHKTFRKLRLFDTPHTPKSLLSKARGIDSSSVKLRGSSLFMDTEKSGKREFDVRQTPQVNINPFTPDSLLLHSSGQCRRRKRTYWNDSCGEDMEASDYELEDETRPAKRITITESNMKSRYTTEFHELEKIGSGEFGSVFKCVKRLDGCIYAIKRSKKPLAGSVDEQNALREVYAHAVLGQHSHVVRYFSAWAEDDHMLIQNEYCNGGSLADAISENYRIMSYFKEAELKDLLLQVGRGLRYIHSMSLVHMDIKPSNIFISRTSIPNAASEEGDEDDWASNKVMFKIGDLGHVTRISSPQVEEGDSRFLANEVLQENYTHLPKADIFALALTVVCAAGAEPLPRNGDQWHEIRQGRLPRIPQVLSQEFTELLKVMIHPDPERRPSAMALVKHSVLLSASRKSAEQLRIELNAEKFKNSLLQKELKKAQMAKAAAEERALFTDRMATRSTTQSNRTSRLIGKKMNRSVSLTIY
Chain of Platelet-derived growth factor receptor beta (P09619 whole entry): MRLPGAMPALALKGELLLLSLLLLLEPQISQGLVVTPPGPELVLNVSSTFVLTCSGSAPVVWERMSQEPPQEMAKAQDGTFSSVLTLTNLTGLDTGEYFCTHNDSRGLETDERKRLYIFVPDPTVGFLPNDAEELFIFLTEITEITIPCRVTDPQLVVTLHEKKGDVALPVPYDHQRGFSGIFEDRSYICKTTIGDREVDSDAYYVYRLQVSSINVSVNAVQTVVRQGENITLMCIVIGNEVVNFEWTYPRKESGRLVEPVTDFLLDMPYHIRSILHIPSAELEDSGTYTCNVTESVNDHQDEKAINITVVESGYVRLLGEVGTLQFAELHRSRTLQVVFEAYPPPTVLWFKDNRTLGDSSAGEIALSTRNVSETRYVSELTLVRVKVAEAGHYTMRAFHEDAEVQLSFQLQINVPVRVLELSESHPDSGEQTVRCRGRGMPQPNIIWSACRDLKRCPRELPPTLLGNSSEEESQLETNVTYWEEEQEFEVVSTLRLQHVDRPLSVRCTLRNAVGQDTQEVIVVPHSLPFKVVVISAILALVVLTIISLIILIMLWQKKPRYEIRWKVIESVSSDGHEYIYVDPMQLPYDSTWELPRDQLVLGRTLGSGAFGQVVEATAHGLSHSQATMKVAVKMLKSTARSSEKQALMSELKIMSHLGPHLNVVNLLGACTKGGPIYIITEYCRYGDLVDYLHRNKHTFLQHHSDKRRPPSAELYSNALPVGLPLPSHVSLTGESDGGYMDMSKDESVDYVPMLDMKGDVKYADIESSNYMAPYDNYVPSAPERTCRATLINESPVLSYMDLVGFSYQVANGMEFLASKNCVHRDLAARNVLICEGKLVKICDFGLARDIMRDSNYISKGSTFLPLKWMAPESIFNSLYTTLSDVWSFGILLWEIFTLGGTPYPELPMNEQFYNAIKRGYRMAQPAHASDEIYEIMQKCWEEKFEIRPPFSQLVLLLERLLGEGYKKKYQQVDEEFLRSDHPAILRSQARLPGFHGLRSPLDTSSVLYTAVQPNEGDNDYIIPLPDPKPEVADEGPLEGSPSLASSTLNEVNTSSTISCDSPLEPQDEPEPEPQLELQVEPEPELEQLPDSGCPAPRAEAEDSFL
Chain of Serine/threonine-protein kinase 24 (Homo sapiens) (Q9Y6E0 whole entry, looked up): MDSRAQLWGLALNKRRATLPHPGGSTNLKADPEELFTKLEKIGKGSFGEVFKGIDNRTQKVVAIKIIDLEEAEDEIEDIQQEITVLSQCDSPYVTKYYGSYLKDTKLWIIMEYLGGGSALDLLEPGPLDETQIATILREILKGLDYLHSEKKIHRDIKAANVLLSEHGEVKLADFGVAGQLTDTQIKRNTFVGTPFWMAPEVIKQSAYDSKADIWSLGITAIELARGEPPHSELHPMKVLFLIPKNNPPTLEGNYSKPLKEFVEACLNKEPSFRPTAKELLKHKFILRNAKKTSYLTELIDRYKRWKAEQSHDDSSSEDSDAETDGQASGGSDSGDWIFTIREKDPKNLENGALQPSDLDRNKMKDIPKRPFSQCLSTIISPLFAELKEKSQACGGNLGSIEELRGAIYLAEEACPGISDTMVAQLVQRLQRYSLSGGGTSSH

In the case of `COc1cc2c(Oc3ccc(-c4nc5ccccc5s4)cc3)ncnc2cc1OCCCN1CCN(C)CC1`, the residual activity in assay [1] is 84%; in assay [2], 90%; in assay [3] it was 46%; in [4], 79%; in assay [5], 48%; in [6], 33%. The residual activity in assay [7] amounted to 118%; in assay [8], 103%; in [9], 87%; in assay [10], 116%; in assay [11], 96%; in assay [12] it was 108%. Also, in assay [13], the residual activity came out at 78%.
In the case of `COc1cc2c(Oc3ccc(-c4nc5ccccc5s4)cc3)ncnc2cc1OCCCN1CCCC1`, the residual activity in assay [1] stood at 90%; in [2] it was 86%; in assay [3], 64%; in [4], 92%; in assay [5] it was 60%; in assay [6] it was 59%. Further, the residual activity in assay [7] stood at 100%; in assay [8], 98%; in assay [9], 101%; in [10], 145%; in [11], 110%; in assay [12] it was 98%. Besides, the residual activity in [13] was 78%.
For `COc1cc2c(Oc3ccc(-c4nc5ccccc5s4)cc3F)ncnc2cc1OCCCN1CCN(C)CC1`, the residual activity in [1] is 88%; in assay [2] it was 93%; in assay [3], 50%; in assay [4], 90%; in assay [5], 35%; in assay [6] it was 29%. Besides, the residual activity amounted to 98% in [7]; 104% in assay [8]; 79% in [9]; 120% in [10]; 91% in [11]; 98% in [12]. The residual activity in assay [13] came out at 88%.

The record behind these values is ChEMBL document CHEMBL1152560, “Substituted 2-arylbenzothiazoles as kinase inhibitors: hit-to-lead optimization” (Bioorg Med Chem, 2009).
